# Assay results reported in patent US6022857A, “Radiolabeled compounds for thrombus imaging” (Diatide, Inc., priority 1998, dated 2000).
# Values joined by “and” are separate entries in the source; they are usually repeats but may differ in a detail not shown here. Equal entries are not always repeated. Where two headings read alike, the source gives them in different places. Where no end group is shown, it is not given here. The star is where a group is joined. Acm = CC(=O)NC*
# Legend:
# femoral vein thrombus [1] = test: Canine model of DVT: thrombus uptake and imaging of Tc-99m labeled reagent; type: in vivo; conditions: approximately 4 h postinjection
# Procedure: *ratio of (% injected dose/g in a femoral vein thrombus)/(% injected
# dose/g in blood) at approximately 4 h postinjection of each Tc99 m labele
# reagent in a canine model of DVT
# [2] = tested on: human platelets in platelet-rich plasma; test: Platelet aggregation inhibition assay (ADP-induced, platelet-rich plasma); type: cell-based
# Procedure: Platelet aggregation studies were performed essentially as described by Zucker (1989, Methods in Enzymol. 169: 117-133). Briefly, platelet aggregation was assayed with or without putative platelet aggregation inhibitory compounds using fresh human platelet-rich plasma, comprising 300,000 platelets per microliter. Platelet aggregation was induced by the addition of a solution of adenosine diphosphate to a final concentration of 10 to 15 micromolar, and the extent of platelet aggregation monitored using a Bio/Data aggregometer (Bio/Data Corp., Horsham, Pa.). The concentrations of platelet aggregation inhibitory compounds used were varied from 0.1 to 500 μg/mL. The concentration of inhibitor that reduced the extent of platelet aggregation by 50% (defined as the IC50) was determined from plots of inhibitor concentration versus extent of platelet aggregation. An inhibition curve for peptide RGDS was determined for each batch of platelets tested.
# **concentration of reagent that inhibits by 50% the aggregation of human
# platelets in plateletrich plasma induced to aggregate by the addition of
# adenosine diphosphate (ADP)
# femoral vein thrombus [3] = test: Canine model of DVT: thrombus uptake and imaging of Tc-99m labeled reagent; conditions: in vivo canine model system
# deep-vein thrombi = test: Pilot human clinical study: scintigraphic imaging of deep-vein thrombi; type: in vivo; conditions: Tc-99m labeled
# Procedure: A series of experiments comprising a pilot human clinical study of one embodiment of the scintigraphic imaging agents of the invention, designated P280, having the chemical structure:
# were performed. These experiments were performed on 9 human patients (6 males, 3 females), ages 30 to 60 years and weighing 63 to 100 kg. Each of the patients presented clinically with the symptoms of deep-vein thrombosis, and the diagnosis was confirmed by physical work-up, ultrasonography and/or contrast venography.
# Each patient in the study was administered 10-22 mCi Tc-99m labeled P280 comprising approximately 0.25 mg peptide, by intravenous injection. Scintigraphic imaging was then performed over four hours using a large field-of-view gamma camera equipped with a high-resolution collimator (photopeaked at 140 keV, with a 20%±window). Gamma camera imaging was commenced simultaneously with injection. Anterior images followed by posterior images over the legs were acquired over the first hour, then at 2 and 4 hours post-injection.
# [4] = human platelet-rich plasma, aggregation induced by ADP, read-out: IC50 (concentration of reagent that inhibits by 50% the aggregation of human platelets)
Substance,"IC50 [2, 4] [nM]",Clot/Blood: ratio of (% injected dose/g in a femoral vein thrombus)/(% injected dose/g in blood) (femoral vein thrombus [1]),also measured
GRDGVRGDFCAcm GCAcm amide(SEQ ID NO: 8) (GRDGVRGDFC(Acm)GC(Acm)-NH2; N-terminus assumed; SMILES CC(=O)NCSC[C@H](NC(=O)CNC(=O)[C@H](CSCNC(C)=O)NC(=O)[C@H](Cc1ccccc1)NC(=O)[C@H](CC(=O)O)NC(=O)CNC(=O)[C@H](CCCNC(=N)N)NC(=O)[C@@H](NC(=O)CNC(=O)[C@H](CC(=O)O)NC(=O)[C@H](CCCNC(=N)N)NC(=O)CN)C(C)C)C(N)=O) [Peptide P98],15000,1.7,–
(CH2 CO.YD ApcGDCGGCAcm GCAcm GGC.amide)2 -BSME [Peptide P280],–,–,"scintigraphic images of venous thrombi (femoral vein thrombus [3]): excellent scintigraphic images; patients in whom thrombi were visualized (deep-vein thrombi; 9 patients with confirmed DVT): 8 of the 9; toxicity or other adverse effects (deep-vein thrombi; 10-22 mCi, approximately 0.25 mg peptide i.v., human patients): no toxicity or other adverse effects; time after injection at which thrombus visualization was evident (deep-vein thrombi; human patients with DVT): 15 to 30 min; time post-injection for which thrombus remained visible (deep-vein thrombi; human patients with DVT): 4 to 24 h; scintigraphic images of deep-vein thrombi (deep-vein thrombi; humans in vivo): excellent scintigraphic images; injected dose remaining in the circulation (deep-vein thrombi; intravenous, 1 hour post-injection, human patients): less than 10%; injected dose cleared by the kidneys (deep-vein thrombi; intravenous, human patients): 60-70%; IC50 ([2]; unlabeled reagent, read-out: IC50, platelet aggregation inhibition): 87 nM"
(CH2 CO--YD ApcGDCGGCAcm GCAcm GGC-amide)3 -TSEA [Peptide P317],36,3.8 ± 2.2,–
(CH2 CO--YD ApcGDCGGCAcm GCAcm GGC-amide)2 -(BAT-BS) [Peptide P357],79,6.3 ± 3.4,–
CAcm GCAcm RRRRRRRRRGDV (SEQ ID NO: 5) (C(Acm)GC(Acm)RRRRRRRRRGDV) [Peptide P32],26000,1.2 ± 0.2,–
(CH2 CO--YD ApcGDCKGCAcm GCAcm GGC-amide)2 -BSME [Peptide P381],35,2.5,–
GRGDVRGDFKCAcm GCAcm amide (SEQ ID NO: 3) (GRGDVRGDFKC(Acm)GC(Acm)-NH2; N-terminus assumed; SMILES CC(=O)NCSC[C@H](NC(=O)CNC(=O)[C@H](CSCNC(C)=O)NC(=O)[C@H](CCCCN)NC(=O)[C@H](Cc1ccccc1)NC(=O)[C@H](CC(=O)O)NC(=O)CNC(=O)[C@H](CCCNC(=N)N)NC(=O)[C@@H](NC(=O)[C@H](CC(=O)O)NC(=O)CNC(=O)[C@H](CCCNC(=N)N)NC(=O)CN)C(C)C)C(N)=O) [Peptide P97],8000,1.0,–
AcSYGRGDVRGDFKCTCCA (SEQ ID NO: 7) (Ac-SYGRGDVRGDFKCTCCA; cysteine pairing not given here) [Peptide P63],19000,1.7,–

# Now from value to substance, other results behind:
"IC50 [2, 4] [nM]",Substance,Clot/Blood: ratio of (% injected dose/g in a femoral vein thrombus)/(% injected dose/g in blood) (femoral vein thrombus [1]),also measured
300,CH2 CO--YD ApcGDCGGGCAm GCAcm amide [Peptide P154],2.0 ± 0.5,–
850,CH2 CO--YD ApcGDCGGCAcm GCAcm GGC-amide [Peptide P246],4.4 ± 1.8,–
25000,CH2 CO--YD RGDCCAcm GCAcm amide [Peptide P81],1.8 ± 0.6,–
1300,CH2 CO--YD RGDCGGCAcm GCAcm amide [Peptide P143],1.4,–
81,(CH2 COYD.Apc.GDCGGCAcm GCAcm GGCamide)2 (CH2 CO)2 K(Nε-K)GCamide [Peptide P667],5.9 and 5.0,–
23000,AcSYGRGDVRGDFKCAcm GCAcm (SEQ ID NO: 6) (Ac-SYGRGDVRGDFKC(Acm)GC(Acm)) [Peptide P47],1.0,–
